Where two headings read alike, the source gives them in different places.
Key:
[1] = tested on: NCI-H460, human non-small lung carcinoma cells; assay: Growth of cancer cell lines: NCI-H460; format: cell-based; details: mean ± S.D., n = 3; read-out: IC50 against growth of NCI-H460
[2] = tested on: APP processing (FL APP, β-CTF, secreted Aβ) in SweAPP N2A cells; assay: Immunoblot analysis of APP processing in SweAPP N2A cells; format: cell-based; details: treated SweAPP N2A cells
Protocol: Cells obtained from Example 5 were washed with phosphate buffered saline and lysed with buffer containing Tris-Cl (50 mM, pH 7.4), NaCl ([…]), TRITON™ X-100 (1%) supplemented with protease inhibitors. Equal amount of proteins (30 μg) was resolved by 16.5% Tris-tricine gels and then transferred to nitrocellulose membrane with 0.2 µm pore size. For detection of secreted Aβ, 50 μL of the conditioned medium was mixed with sodium dodecyl sulfate (“SDS”) sample buffer and resolved accordingly. The membrane was blocked with Tris-buffered saline containing TWEEN™20 (0.1%) and bovine serum albumin (“BSA”) (3%) and then incubated with primary antibodies at 4° C. overnight, followed with appropriate secondary antibodies for 2 hours. The primary antibodies used included rabbit APP c-terminal antibody with 1:5000 dilution (obtained from Merck Bioscience) for detection of full length (“FL”) and CTFs, and mouse monoclonal 6E10 (obtained from Covance) for detection of secreted Aβ. The immunoreactivities were detected using enhanced chemiluminescence reagents (manufactured by GE Health care).
Immunoblot analysis: Cells were washed with phosphate buffered saline and lysed with buffer containing 50 mM Tris-Cl, pH 7.4, 150 mM NaCl, 1% Triton X-100 supplemented with protease inhibitors. Equal amount of proteins (30 μg) was resolved by 16.5% Tris-tricine gels and then transferred to nitrocellulose membrane with 0.2 µm pore size. For detection of secreted Aβ, sAPPα and sAPPβ, cells were treated with the timosaponins for 8 hr in complete medium which were then replaced with medium containing 0.1% FBS. After further incubation of 16 hr, 50 μL of the conditioned medium was mixed with SDS sample buffer and resolved accordingly. The membrane was blocked with Tris-buffered saline containing 0.1% TWEEN® 20 and 3% BSA and then incubated with primary antibodies at 4° C. overnight, followed with appropriate secondary antibodies for 2 hr. […] The immunoreactivities were detected using enhanced chemiluminescence reagents (GE Health care). […]

[3] = tested on: SW480, human colon adenocarcinoma cells; assay: Growth of cancer cell lines: SW480; format: cell-based; details: mean ± S.D., n = 3; read-out: IC50 against growth of SW480
[4] = biological target: T1, BACE activity in cell lysates (Mus musculus, UniProt P56818); assay: BACE (β-secretase) activity in cell lysates; format: biochemical; details: cells treated with compound
T1 construct: endogenous in cells; host or cells: N2A-APPswe (Neuro-2A cells expressing Swedish mutant APP)
Protocol: (§1) β-Secretase assays: Confluent N2A-APPswe cells were harvested and homogenized with 50 mM MES, pH 5.5. Protein extracts (10 μg) were incubated with TAIII for 1 hr at room temperature. The β-secretase activities were assayed by adding 10 μM fluorogenic β-secretase substrate (Millipore) to the reaction mixtures and fluorescence signals (excitation, 380 nm; emission, 460 nm) were measured. β-Secretase assays were also performed using purified BACE1 (Millipore) at 100 ng in a buffer of 50 mM MES, pH 5.5.

[5] = tested on: Aβ42, Aβ40 and Aβ38 in N2A-APPswe cells; assay: Aβ42, Aβ40 and Aβ38 profiles in conditioned medium by ELISA; format: cell-based; details: FIG. 18, 18 hr
Protocol: Aβ ELISA: Aβ concentrations in conditioned medium were assayed using ELISA kits for human Aβ40, human Aβ42 (ultrasensitive) (Invitrogen) and Aβ38 (MyBioSource).
Cells were treated with various concentrations of (TAIII/TAI/AA/TAV) and DMSO vehicle (C) for 18 hr. In part A of FIG. 18, the expression of full length (FL) and CTF (c99 and c83) in cell lysates and secreted APP (sAPPα and sAPPP) in the conditioned medium were examined by immunoblot using methods specified in Example 6. In part B of FIG. 18, the profiles of Aβ42, Aβ40 and Aβ38 in the conditioned medium were determined by ELISA using methods specified in Example 5.

Neuro-2A cells = assay: Neurite outgrowth of N2A cells; format: cell-based
Protocol: Immunofluorescence examination of neurite outgrowth: Neuro-2A cells were seeded at 1×10^5 cells per glass bottom dish. After treatment, cells were fixed with 4% paraformaldyde for 10 min, permeabilized with 0.1% Trition X-100, and then blocked with 1% BSA in PBS. The cells were incubated with monoclonal antibody raised against type III β-tubulin (Sigma) for 1 hr followed by Alexa488 conjugated secondary antibody. Neurite morphology was examined under fluorescence microscope.

[6] = tested on: HeLa, human cervical carcinoma cells; assay: Growth of cancer cell lines: HeLa; format: cell-based; details: mean ± S.D., n = 3; read-out: IC50 against growth of HeLa
purified BACE1 enzyme = biological target: T2, purified BACE1 enzyme (Homo sapiens, UniProt P56817); assay: Purified BACE1 enzyme activity; format: biochemical; details: up to 100 μM
T2 construct: purchased Millipore
Protocol: as §1

SweAPP N2A cells = assay: Cell viability of SweAPP N2A cells; format: cell-based; details: at concentrations that significantly inhibited Aβ production
Protocol: Cells were treated with timosaponins or other test compounds, and the conditioned medium was collected and subjected to measurement of secreted Aβ and N-terminal secreted APP (sAPPα and sAPPβ) by ELISA using specific antibodies pair targeting to respective fragments. Lysates from cells treated with timosaponins were subjected to immunoblot analysis using antibodies against c-terminal of APP to detect the full length APP, α-CTF and β-CTF. Cell viability and cytotoxicity are examined by MTT and LDH release assays, respectively. Cell culture: Neuro-2A cells expressing Swedish mutants of APP (N2A-APPswe) ENREF 12 was cultured in minimal essential medium with 2 mM glutamine, 2 mM pyruvate and 10% fetal bovine serum. Cells were seeded at 6-well plate at 1×10^6 cells/mL and grown for two days until confluence. The medium was replaced and the test compounds were added at indicated concentrations for 24 hr. Cell viability was measured by standard MTT assays.

[7] = tested on: SH-SY5Y neuronal cells transfected with mRFP-LC3; assay: Colocalization of exogenous labeled Aβ1-42 with mRFP-LC3 autophagic compartments; format: cell-based, Human; details: 5 μM, 16 hours
[8] = tested on: Aβ1-42 production in SweAPP N2A cells (N2A-APPswe); assay: Aβ1-42 ELISA of conditioned medium of SweAPP N2A cells; format: cell-based
Protocol: Neuro-2A cells expressing Swedish mutants of (“SweAPP N2A cells”) was cultured in minimal essential medium with glutamine (2 mM), pyruvate (2 mM) and fetal bovine serum (10%). Cells were seeded at 6-well plate at 1×10^6 cells/mL and grown overnight. The medium was replaced.
Conditioned medium was diluted with 2 part volume of ELISA diluents. Aβ1-42 concentrations were determined by using human Aβ1-42 ultrasensitive ELISA kit (manufactured by Invitrogen).

[9] = tested on: HepG2, human hepatoma cells; assay: Growth of cancer cell lines: HepG2; format: cell-based; details: mean ± S.D., n = 3; read-out: IC50 against growth of HepG2

T2 sequence (P56817 46-501, species assumed): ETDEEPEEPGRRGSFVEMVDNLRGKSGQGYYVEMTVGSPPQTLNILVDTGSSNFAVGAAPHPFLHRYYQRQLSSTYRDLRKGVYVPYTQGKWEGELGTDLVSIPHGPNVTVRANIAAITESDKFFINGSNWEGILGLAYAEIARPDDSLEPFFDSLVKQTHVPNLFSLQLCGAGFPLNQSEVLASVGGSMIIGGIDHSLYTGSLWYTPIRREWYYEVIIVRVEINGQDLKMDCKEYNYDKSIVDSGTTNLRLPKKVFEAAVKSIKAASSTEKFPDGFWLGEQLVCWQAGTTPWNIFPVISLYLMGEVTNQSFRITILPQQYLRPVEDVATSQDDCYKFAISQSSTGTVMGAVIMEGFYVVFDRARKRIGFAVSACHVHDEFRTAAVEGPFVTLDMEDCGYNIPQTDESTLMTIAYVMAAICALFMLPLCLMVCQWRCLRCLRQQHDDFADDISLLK
T1 sequence (P56818 46-501): as the sequence (P56817 46-501, species assumed) above, with P6S, V162I, L165I, S180T, V182A, I340V, L393A, Q443H counted along it

SMILES: C[C@H]1CC[C@@]2(OC1)O[C@H]1C[C@H]3[C@@H]4CC[C@@H]5C[C@@H](O[C@@H]6O[C@H](CO)[C@H](O)[C@H](O)[C@H]6O[C@@H]6O[C@H](CO)[C@@H](O)[C@H](O)[C@H]6O)CC[C@]5(C)[C@H]4CC[C@]3(C)[C@H]1[C@@H]2C [Timosaponin AIII]
- IC50 [1]: 6.9 ± 0.31 µM
- Aβ immunoreactivities in the conditioned medium [2]: concomitant decrease
- FL APP expression [2]: without significant changes
- Intracellular APP β-CTF expression [2]: significantly decreased
- IC50 [3]: 12.2 ± 0.28 µM
- BACE activity in cell lysates [4]: no change
- Aβ profile (Aβ42 vs Aβ40 and Aβ38) [5]: preferentially lower Aβ42 production
- Neurite outgrowth (Neuro-2A cells; Example 8, 5 μM, 18 hours, N2A cells): significant extension and branching neuritis
- Neurite outgrowth (Neuro-2A cells; FIG. 19, TAIII 5 μM, TAI 10 μM, SSG 25 μM, 18 hr, type III β-tubulin staining): significant extension and branching of neurites
- IC50 [6]: 7.47 ± 2.39 µM
- Activity of purified BACE1 enzyme (purified BACE1 enzyme): not affected
- Cell viability (SweAPP N2A cells): did not affect the cell viability
- Colocalization of fluorophore labeled Aβ1-42 with mRFP-LC3 associated autophagic compartments [7]: significantly colocalized
- IC50 ([8]; Example 5, SweAPP N2A cells, 18 hours, ELISA, read-out: IC50, reduction of Aβ1-42 peptide secretion): 2 µM
- IC50 ([8]; Example 9, SweAPP N2A cells, Aβ1-42 ELISA, read-out: ICS50, inhibitor of Aβ production): 2.5 µM
- IC50 ([8]; Table 4, N2A-APPswe cells, mean ± S.D, n ≥ 3, read-out: IC50 in lowering Aβ42 production): 2.3 ± 0.2 µM
- IC50 [9]: 7.28 ± 0.56 µM
